In patent US7332601B2, “CCI-779 derivatives and methods of making same” (Wyeth, priority 2004, dated 2008):

Experiments:
CYP3A4 = target: T1, CYP3A4 (Homo sapiens, UniProt P08684); test: Generation of CCI-779 derivatives by CYP450 isozyme incubation; type: in vitro ADME
T1 construct: host or cells: E. coli (membrane preparation)
Experimental: The invention provides a method of generating specific derivatives of CCI-779 by incubating CCI-779 with membranes of recombinant E. coli cells expressing human cytochrome P450-3A4 isozymes.
In order to generate the specific hydroxylation derivatives of the invention, CCI-779 and CYP3A4 may be incubated in the presence of a reducing agent, such as NADH or NADPH. Suitably, CCI-779 and the enzyme can be present in a ratio of 300:1 to 500:1, and desirably about 330:1 CCI-779 to enzyme. In the examples below, these components are mixed to a final concentration of 0.1 mM CCI-779, 300 nM 3A4 enzyme, and 2 mM NADPH regenerate system. However, other concentrations can be readily used.
To a 5L reactor containing CCI-779 514 mg (0.5 mmol), MgCl2 (0.4 M×100 ml), NADPH generating system (NADP sodium salt: 75 mg×100 mL, D-glucose-6-phospate: 60 mg/mL×100 mL; glucose-6-phosphate dehydrogenase: 25 units/mL×100 mL), and E. coli-expressed CYP-3A4 membrane (1500 nmol) was added potassium phosphate buffer solution to 5L. The mixture solution was incubated at 37° C. under oxygen atmosphere (sparging O2 at 0.3 L/min) with agitation of 125 rpm for one hour. After one-hour reaction, the reaction solution was cooled down to 25° C. on an ice bath and extracted with an equal volume of ethyl acetate twice. […]

orthotopic glioma model = conditions: nude mice; cited from earlier work
CYP450 2C19 = CYP450 2C19 (Homo sapiens, UniProt P33261); test: Generation of CCI-779 derivatives by CYP450 isozyme incubation; type: in vitro ADME
CYP450 2C9 = CYP450 2C9 (Homo sapiens, UniProt P11712); test: as above; type: in vitro ADME
CYP450 2A6 = target: T2, CYP450 2A6 (Homo sapiens, UniProt P11509); test: as above; type: in vitro ADME
T2 sequence (P11509 1-494): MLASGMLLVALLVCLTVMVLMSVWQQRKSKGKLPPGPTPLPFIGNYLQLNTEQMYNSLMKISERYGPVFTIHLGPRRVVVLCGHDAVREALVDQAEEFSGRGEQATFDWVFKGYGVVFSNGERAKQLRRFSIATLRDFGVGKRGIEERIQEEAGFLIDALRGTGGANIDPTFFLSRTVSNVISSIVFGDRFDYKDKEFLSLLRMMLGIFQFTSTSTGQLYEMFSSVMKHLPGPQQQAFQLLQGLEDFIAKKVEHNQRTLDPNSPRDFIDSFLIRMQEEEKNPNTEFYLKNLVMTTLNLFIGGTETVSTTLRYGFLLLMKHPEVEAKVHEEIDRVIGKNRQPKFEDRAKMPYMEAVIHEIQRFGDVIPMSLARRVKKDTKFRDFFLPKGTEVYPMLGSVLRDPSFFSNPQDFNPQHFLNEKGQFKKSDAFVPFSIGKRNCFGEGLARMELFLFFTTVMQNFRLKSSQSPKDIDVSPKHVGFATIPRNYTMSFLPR

[1] = test system: human glioblastoma cell line; conditions: human glioblastoma cell line in vitro; cited from earlier work
[2] = test system: histologically diverse tumor cells; conditions: cited from earlier work
CYP450 2C8 = target: T3, CYP450 2C8 (Homo sapiens, UniProt P10632); test: Generation of CCI-779 derivatives by CYP450 isozyme incubation; type: in vitro ADME
T3 sequence (P10632 1-490): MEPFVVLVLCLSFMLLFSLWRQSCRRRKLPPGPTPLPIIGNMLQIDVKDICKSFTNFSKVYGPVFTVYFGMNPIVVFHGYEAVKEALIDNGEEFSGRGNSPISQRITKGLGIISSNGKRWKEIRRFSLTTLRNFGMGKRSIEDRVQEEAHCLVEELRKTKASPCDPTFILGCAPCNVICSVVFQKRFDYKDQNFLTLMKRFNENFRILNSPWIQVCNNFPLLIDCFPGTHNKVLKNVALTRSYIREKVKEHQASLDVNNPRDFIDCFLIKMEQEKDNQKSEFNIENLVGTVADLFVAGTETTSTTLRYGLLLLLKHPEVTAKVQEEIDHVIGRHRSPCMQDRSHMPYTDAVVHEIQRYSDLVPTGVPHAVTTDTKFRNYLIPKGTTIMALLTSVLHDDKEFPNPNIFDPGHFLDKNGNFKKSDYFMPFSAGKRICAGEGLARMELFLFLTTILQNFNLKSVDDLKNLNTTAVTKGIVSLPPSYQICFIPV

human pancreatic tumors = conditions: several human pancreatic tumors in nude mice; cited from earlier work
CYP450 2E1 = CYP450 2E1 (Homo sapiens, UniProt P05181); test: Generation of CCI-779 derivatives by CYP450 isozyme incubation; type: in vitro ADME
breast cancer lines = conditions: one of two breast cancer lines studied in vivo; cited from earlier work
[3] = test system: human tumor xenografts of diverse histological types; conditions: nude mice, cited from earlier work

Chain of CYP450 2C19 (P33261 whole entry): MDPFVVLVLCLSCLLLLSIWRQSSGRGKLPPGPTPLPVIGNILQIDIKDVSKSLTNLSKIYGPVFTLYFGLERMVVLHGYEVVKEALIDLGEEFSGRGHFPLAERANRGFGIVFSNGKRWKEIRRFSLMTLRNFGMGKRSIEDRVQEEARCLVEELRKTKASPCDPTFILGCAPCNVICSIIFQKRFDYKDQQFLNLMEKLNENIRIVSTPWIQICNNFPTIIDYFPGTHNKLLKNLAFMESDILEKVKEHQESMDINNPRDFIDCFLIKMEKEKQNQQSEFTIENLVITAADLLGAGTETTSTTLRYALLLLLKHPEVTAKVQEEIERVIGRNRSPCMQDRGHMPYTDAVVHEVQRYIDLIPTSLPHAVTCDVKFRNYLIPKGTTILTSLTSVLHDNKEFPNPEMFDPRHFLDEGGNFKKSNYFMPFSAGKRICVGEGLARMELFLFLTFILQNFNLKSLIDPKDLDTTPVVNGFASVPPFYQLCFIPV
Chain of CYP450 2C9 (P11712 whole entry): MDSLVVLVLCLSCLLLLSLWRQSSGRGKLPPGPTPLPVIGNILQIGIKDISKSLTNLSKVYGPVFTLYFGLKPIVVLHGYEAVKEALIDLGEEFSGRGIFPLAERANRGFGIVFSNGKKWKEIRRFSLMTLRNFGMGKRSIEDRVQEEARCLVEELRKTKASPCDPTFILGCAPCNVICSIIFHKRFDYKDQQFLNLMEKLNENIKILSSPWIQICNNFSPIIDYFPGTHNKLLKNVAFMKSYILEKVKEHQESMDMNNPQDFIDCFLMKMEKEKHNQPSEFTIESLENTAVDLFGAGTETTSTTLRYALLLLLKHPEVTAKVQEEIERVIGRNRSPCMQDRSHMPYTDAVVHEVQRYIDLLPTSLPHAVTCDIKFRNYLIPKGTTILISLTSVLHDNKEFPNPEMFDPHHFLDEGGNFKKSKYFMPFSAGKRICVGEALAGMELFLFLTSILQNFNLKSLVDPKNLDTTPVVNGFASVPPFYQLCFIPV
T1 sequence (P08684 whole entry): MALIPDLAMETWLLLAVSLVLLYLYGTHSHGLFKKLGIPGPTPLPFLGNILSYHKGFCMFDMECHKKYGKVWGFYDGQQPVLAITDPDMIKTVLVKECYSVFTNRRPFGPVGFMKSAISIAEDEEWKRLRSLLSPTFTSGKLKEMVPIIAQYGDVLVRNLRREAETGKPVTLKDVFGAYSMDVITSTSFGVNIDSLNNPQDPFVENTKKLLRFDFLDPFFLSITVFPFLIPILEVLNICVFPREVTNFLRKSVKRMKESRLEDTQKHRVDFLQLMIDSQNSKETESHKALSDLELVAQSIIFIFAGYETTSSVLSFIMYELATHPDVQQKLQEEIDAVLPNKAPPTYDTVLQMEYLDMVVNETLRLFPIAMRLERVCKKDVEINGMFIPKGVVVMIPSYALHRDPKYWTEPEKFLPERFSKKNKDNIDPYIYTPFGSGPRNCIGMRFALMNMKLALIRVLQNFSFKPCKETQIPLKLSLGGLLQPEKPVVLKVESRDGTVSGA
Chain of CYP450 2E1 (P05181 whole entry): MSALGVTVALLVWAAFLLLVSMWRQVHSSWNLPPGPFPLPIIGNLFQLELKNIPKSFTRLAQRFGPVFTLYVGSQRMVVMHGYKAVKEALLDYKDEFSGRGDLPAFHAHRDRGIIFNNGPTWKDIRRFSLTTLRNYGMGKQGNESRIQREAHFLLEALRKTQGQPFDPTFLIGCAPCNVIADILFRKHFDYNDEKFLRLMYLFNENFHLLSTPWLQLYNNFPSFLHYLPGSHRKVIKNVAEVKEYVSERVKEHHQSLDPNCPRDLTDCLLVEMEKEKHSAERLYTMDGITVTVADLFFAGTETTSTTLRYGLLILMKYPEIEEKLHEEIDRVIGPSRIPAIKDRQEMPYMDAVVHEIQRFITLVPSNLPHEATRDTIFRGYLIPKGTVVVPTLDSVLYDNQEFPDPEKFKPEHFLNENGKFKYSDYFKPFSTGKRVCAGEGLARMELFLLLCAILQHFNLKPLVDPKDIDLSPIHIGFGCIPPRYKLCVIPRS

Question: Which “generation of CCI-779 derivatives by the enzyme” value (from here on “generation”) (CYP3A4) does the source give for `CO[C@H]1CC2CC[C@@H](C)[C@@](O)(O2)C(=O)C(=O)N2CCCC[C@H]2C(=O)O[C@H]([C@H](C)C[C@@H]2CC[C@@H](OC(=O)C(C)(CO)CO)[C@H](OC)C2)CC(=O)[C@H](C)/C=C(\C)[C@@H](O)[C@@H](OC)C(=O)[C@H](C)C[C@H](C)/C=C/C=C/C=C/1C` [CCI-779, Rapamycin 42-ester with 2,2-bis(hydroxymethyl)propionic acid] here?
Answer: The value was “the only member of this family of enzymes to specifically generate CCI-779 derivatives”.

Question: And the “activity in orthotopic glioma model” value (orthotopic glioma model)?
Answer: Its value is “active”.

Question: What about the “generation” value (CYP450 2C19) of the same compound?
Answer: Its value is “not able to generate these derivatives”.

Question: What about the “generation” value (CYP450 2C9) of the same compound?
Answer: The value was “not able to generate these derivatives”.

Question: And the “generation” value (CYP450 2A6)?
Answer: The value was “not able to generate these derivatives”.

Question: What about the “growth factor (platelet-derived)-induced stimulation” value [1] of the same compound?
Answer: The value was “markedly suppressed”.

Question: What about the “sensitivity of tumor lines” value ([2]; CNS cancer, leukemia (T-cell), breast cancer, prostate cancer and melanoma lines) of the same compound?
Answer: The value was “among the most sensitive”.

Question: What about the “inhibition of growth of tumor cells” value ([2]; in vitro, a number of histologically diverse tumor cells) of the same compound?
Answer: The value was “inhibit the growth”.

Question: What about the cell cycle effect ([2]; in vitro) of the same compound?
Answer: Its cell cycle effect is “arrested cells in the G1 phase”.

Question: And the “generation” value (CYP450 2C8)?
Answer: Its value is “not able to generate these derivatives”.

Question: What about the tumor growth (human pancreatic tumors) of the same compound?
Answer: The tumor growth was “inhibited”.

Question: And the “generation” value (CYP450 2E1)?
Answer: Its value is “not able to generate these derivatives”.

Question: And the tumor growth (breast cancer lines)?
Answer: Its tumor growth is “inhibited”.

Question: What about the sensitivity of gliomas ([3]; gliomas) of the same compound?
Answer: Its sensitivity of gliomas is “particularly sensitive”.

Question: What about the “activity against human tumor xenografts” value [3] of the same compound?
Answer: Its value is “has activity”.
